From US20240247035A1, “STAPLED ANTIMICROBIAL PEPTIDES (STAMPS) AND USES THEREOF” (Lytica Therapeutics, Inc., priority 2021, published 2024) come the findings set out here.

Structures are written as SMILES. ≈ marks a conversion by molar mass, not a printed value. Bridge positions count the residues as written; N and C are the ends. Square brackets hold non-standard residues; d marks the D form. Peptide text beside a SMILES is read from it. Phe(4-tBu) = CC(C)(C)c1ccc(C[C@H](N)C(=O)O)cc1; S5 = C=CCCC[C@](C)(N)C(=O)O Some results are limits rather than exact numbers.

Data set [1] can be described thus: 90 minute cytotoxicity assay (LDH release), renal toxicity. It is filed as cell-based. Particulars: human. The procedure:
(§1) Cell culture: RPTEC were maintained in MEM media supplemented with growth factors. HEPG2 cell line was maintained in Eagle's Minimum Essential Medium (EMEM) supplemented with fetal bovine serum to a final concentration of 10%.
90 minute cytotoxicity assay: Cells were plated in a 96-well format, and after overnight incubation, media was replaced with fresh media. Serial dilutions of StAMPs from a 5 mg/mL water stock, or vehicle, were added to the cells in a final volume of 100 μl. After incubating at 37° C. for 90 min, 50 μl of cell culture media was transferred to a clear 96-well plate, incubated with 50 μl of lactate dehydrogenase (LDH) assay reagent for 10 min, and absorbance measured at 490 nm on a microplate reader.
(§2) Renal toxicity was measured after 90 minutes of incubation, while liver toxicity was measured after 48 hours of incubation with StAMPs. N/A=not tested.
(In general: Release of lactate dehydrogenase indicates damage to the cell membrane.)

The nature of data set [2]: 48 hours cytotoxicity assay (CellTiter-Glo), liver toxicity. Format: cell-based. Particulars: human. As for the experimental part:
as §1
48 hours cytotoxicity assay: Cells were plated in a 96-well format, and after 4 hour incubation to allow attachment, serial dilutions of StAMPs from a 5 mg/mL water stock, or vehicle, were then added to the cells in a final volume of 100 μl. After incubating at 37° C. for 48 hours, 100 μl of CellTiter-Glo® reagent was added to the cells, and the plates were incubated 10 minutes at room temperature. Luminescence was then measured on a microplate reader.
as §2
Background: In ATP-based viability assays light output follows the ATP content of the culture.

In data set [1], `CC[C@H](C)[C@H](NC(=O)[C@H](CCCCN)NC(=O)[C@H](CCCCN)NC(=O)CNC(=O)[C@H](CCCCN)NC(=O)[C@]1(C)CCCC=CCCC[C@](C)(NC(=O)CN)C(=O)N[C@@H](Cc2ccccc2)C(=O)N[C@@H](CO)C(=O)N[C@@H](CCCCN)C(=O)N1)C(=O)N[C@@H](CCCCN)C(=O)N[C@@H](CC(N)=O)C(=O)N[C@@H](CC(C)C)C(=O)N[C@@]1(C)CCCC=CCCC[C@@](C)(C(=O)N[C@@H](CCCCN)C(=O)NCC(N)=O)NC(=O)[C@H](CCCCN)NC(=O)[C@H](CO)NC(=O)[C@H]([C@@H](C)CC)NC1=O` [compound 3] (H-G[S5]FSK[S5]KGKKIKNL[S5]ISK[S5]KG-NH2; staple 2-6, 15-19) registered an IC50 at 90 min of 119 µg/mL (≈ 50.4 µM). Further, half-maximal inhibition in data set [2] (IC50 at 48 hours) was put at 57 µg/mL (≈ 24.1 µM).

`CC[C@H](C)[C@H](NC(=O)[C@H](CCCCN)NC(=O)[C@H](CCCCN)NC(=O)CNC(=O)[C@H](CCCCN)NC(=O)[C@]1(C)CCCC=CCCC[C@](C)(NC(=O)CN)C(=O)N[C@@H](Cc2ccccc2)C(=O)N[C@@H](CO)C(=O)N[C@@H](CCCCN)C(=O)N1)C(=O)N[C@@H](CCCCN)C(=O)N[C@@H](CC(N)=O)C(=O)N[C@@H](CC(C)C)C(=O)N[C@@]1(C)CCCC=CCCC[C@@](C)(C(=O)N[C@@H](CCCCN)C(=O)N[C@@H](CCCCN)C(N)=O)NC(=O)CNC(=O)[C@H](CO)NC(=O)[C@H]([C@@H](C)CC)NC1=O` [compound 4] (H-G[S5]FSK[S5]KGKKIKNL[S5]ISG[S5]KK-NH2; staple 2-6, 15-19) showed an IC50 at 90 min in data set [1] of 34 µg/mL (≈ 14.4 µM). Moreover, in data set [2], half-maximal inhibition (IC50 at 48 hours) was put at 24 µg/mL (≈ 10.2 µM).

Regarding `CC[C@H](C)[C@H](NC(=O)[C@H](CCCCN)NC(=O)[C@H](CCCCN)NC(=O)CNC(=O)[C@H](CCCCN)NC(=O)[C@]1(C)CCCC=CCCC[C@](C)(NC(=O)CN)C(=O)N[C@@H](CCCCN)C(=O)N[C@@H](CO)C(=O)N[C@@H](CCCCN)C(=O)N1)C(=O)N[C@@H](CCCCN)C(=O)N[C@@H](CC(N)=O)C(=O)N[C@@H](CC(C)C)C(=O)N[C@@]1(C)CCCC=CCCC[C@@](C)(C(=O)N[C@@H](CCCCN)C(=O)N[C@@H](CC(N)=O)C(=O)N[C@@H](CCC(=O)O)C(N)=O)NC(=O)[C@H](Cc2ccccc2)NC(=O)[C@H](CO)NC(=O)[C@H]([C@@H](C)CC)NC1=O` [compound 23] (H-G[S5]KSK[S5]KGKKIKNL[S5]ISF[S5]KNE-NH2; staple 2-6, 15-19), the IC50 at 90 min in data set [1] worked out at 62 µg/mL (≈ 24.3 µM). The molecule also showed an IC50 at 48 hours in data set [2] of 53 µg/mL (≈ 20.8 µM).

Consider `CC[C@H](C)[C@H](NC(=O)[C@H](CCCCN)NC(=O)[C@H](CCCCN)NC(=O)CNC(=O)[C@H](CCCCN)NC(=O)[C@]1(C)CCCC=CCCC[C@](C)(NC(=O)CN)C(=O)N[C@@H](Cc2ccccc2)C(=O)N[C@@H](CO)C(=O)N[C@@H](CCCCN)C(=O)N1)C(=O)N[C@@H](CCCCN)C(=O)N[C@@H](CC(N)=O)C(=O)N[C@@H](CC(C)C)C(=O)N[C@@H](CC(C)C)C(=O)N[C@@]1(C)CCCC=CCCC[C@@](C)(C(=O)NCC(N)=O)NC(=O)[C@H](CCCCN)NC(=O)CNC(=O)[C@H](CO)NC1=O` [compound 37] (H-G[S5]FSK[S5]KGKKIKNLL[S5]SGK[S5]G-NH2; staple 2-6, 16-20), for which, in data set [1], the IC50 at 90 min was > 200 µg/mL. For the same molecule, the IC50 at 48 hours in data set [2] is > 200 µg/mL.

Take `CC[C@H](C)[C@@H]1NC(=O)[C@@](C)(NC(=O)[C@H](CC(C)C)NC(=O)[C@H](CC(N)=O)NC(=O)[C@H](CCCCN)NC(=O)[C@H](Cc2ccc(C(C)(C)C)cc2)NC(=O)[C@H](CCCCN)NC(=O)[C@H](CCCCN)NC(=O)CNC(=O)[C@H](CCCCN)NC(=O)[C@]2(C)CCCC=CCCC[C@](C)(NC(=O)CN)C(=O)N[C@@H](CCCCN)C(=O)N[C@@H](CO)C(=O)N[C@@H](CCCCN)C(=O)N2)CCCC=CCCC[C@@](C)(C(=O)N[C@@H](CCCCN)C(=O)N[C@@H](CC(N)=O)C(N)=O)NC(=O)CNC(=O)[C@H](CO)NC1=O` [compound 18] (H-G[S5]KSK[S5]KGKK[Phe(4-tBu)]KNL[S5]ISG[S5]KN-NH2; staple 2-6, 15-19): in data set [2], inhibition was half-maximal at 21 µg/mL (≈ 8.68 µM) (IC50 at 48 hours).

In general, IC50 refers to the midpoint of a concentration-inhibition curve.
